Source: ChEMBL document CHEMBL1158462, “Recent advances in the development of polyamine analogues as antitumor agents” (J Med Chem, 2009)

Assays:
MCF7 = assay: cells; assay type: functional, cell-based; conditions: Homo sapiens
Description: Antitumor activity against human MCF7 cells

MCF-10A = assay: cells; assay type: functional, cell-based; conditions: Homo sapiens
Description: Antitumor activity against human MCF10A cells

[1] = molecular target: T1, Histone deacetylase (Homo sapiens) (UniProt Q13547+O15379+Q9UBN7+Q92769+Q9UQL6+Q8WUI4+Q9BY41+Q96DB2+P56524+Q9UKV0+Q969S8); conditions: HeLa, at 5 µM
Description: Inhibition of HDAC from human HeLa cells assessed as of histone H3 acetylation at 5 uM

DU-145 = assay: Antitumor activity against human DU145 cells; assay type: functional, cell-based
DuPro = assay: Antitumor activity against human DuPro cells; assay type: functional, cell-based
NCI-H157 = assay: Antitumor activity against human NCI-H157 cells by MTT assay; assay type: functional, cell-based
[2] = Antitumor activity against human H82 cells; assay type: functional, cell-based; conditions: NCI-H82
A549 = assay: Antitumor activity against human A549 cells; assay type: functional, cell-based
HT-29 = assay: Antitumor activity against human HT-29 cells; assay type: functional, cell-based
[3] = Antitumor activity against human U251MG cells; assay type: functional, cell-based; conditions: U-251
PC-3 = assay: cells; conditions: Homo sapiens
Description: Antitumor activity against human PC3 cells

LNCaP = assay: Antitumor activity against human LNCAP cells; assay type: functional, cell-based
MDA-MB-435 = assay: Antitumor activity against human MDA-MB-435 cells; assay type: functional, cell-based
Enterocytozoon bieneusi = assay: Antimicrobial activity against Enterocytozoon bieneusi; assay type: functional, organism-based
L1210 = assay: Antitumor activity against mouse L1210 cells; assay type: functional, cell-based
Malme-3M = assay: Antitumor activity against human MALME-3M cells; assay type: functional, cell-based
NCI-H69 = assay: Antitumor activity against human H69 cells; assay type: functional, cell-based
[4] = molecular target: T1, Histone deacetylase (Homo sapiens); assay: Inhibition of HDAC from human HeLa cells assessed as induction of histone H3 acetylation at 1 uM; assay type: cell-based
cells = conditions: Mus musculus, ML1
Description: Antitumor activity against mouse ML1 cells

[5] = molecular target: T1, Histone deacetylase (Homo sapiens); assay: Inhibition of HDAC from human HeLa cells assessed as fold induction of alpha tubulin acetylation; assay type: cell-based
T47D = assay: Antitumor activity against human T47D cells; assay type: functional, cell-based
ZR-75-1 = assay: Antitumor activity against human ZR-75-1 cells; assay type: functional, cell-based
MDA-MB-468 = assay: Antitumor activity against human MDA-MB-468 cells; assay type: functional, cell-based
[6] = Antitumor activity against human Hs 578T cells; assay type: functional, cell-based

Nc1ccccc1NC(=O)c1ccc(CNC(=O)CCCCCCCCC(=O)NCCCNCCCCNCCC(c2ccccc2)c2ccccc2)cc1
IC50 (MCF7): > 30 µM
IC50 (MCF-10A): > 30 µM
inhibition [1]: 42.9%

CCNCCCCNC[C@H]1C[C@@H]1CNCCCCNC[C@H]1C[C@@H]1CNCCCCNCC
IC50 (DU-145): 120 nM
IC50 (DuPro): 120 nM

c1ccc(C(CCNCCCNCCCCNCCCNCCC(c2ccccc2)c2ccccc2)c2ccccc2)cc1
IC50 (NCI-H157): 3.8 µM

CC(=O)C(=O)NCCCCCC(=O)NCCCNCCCCNCCC(c1ccccc1)c1ccccc1
IC50 (MCF7): > 30 µM
IC50 (MCF-10A): > 30 µM
inhibition [1]: 30.2%

CCNCCCNCCCNCCCNCCC(C)C
IC50 (NCI-H157): 0.6 µM

CCNCCCNCCCNCCCNC[C@@H](C)CC
IC50 (NCI-H157): 1.3 µM
IC50 [2]: 1300 nM

CCNCCCCNC[C@@H]1C[C@H]1NCCCCNCC
IC50 (DU-145): 250 nM
IC50 (A549): 250 nM
IC50 (HT-29): 250 nM
IC50 [3]: 250 nM
IC50 (MCF7): > 30 µM
IC50 (PC-3): 250 nM

CCNCCCCNCCCCNCCCCNCCCCNCC
IC50 (DU-145): 100 nM
IC50 (LNCaP): 100 nM
IC50 (PC-3): 100 nM

CCNCCCCNCCCCNCCCCNC/C=C/CNCCCCNCCCCNCCCCNCC
IC50 (DU-145): 130 nM
IC50 (LNCaP): 130 nM
IC50 (MDA-MB-435): 130 nM
IC50 (Enterocytozoon bieneusi): 130 nM
IC50 (DuPro): 130 nM
IC50 (PC-3): 130 nM

CCNC[C@H]1C[C@@H]1CNCCCCNC[C@H]1C[C@@H]1CNCC
IC50 (DU-145): 60 nM
IC50 (DuPro): 60 nM

CC(C)c1ccc(CNCCCCNCCCNCc2ccc(C(C)C)cc2)cc1
IC50 (NCI-H157): 4.2 µM

CCNCCCNCc1ccccc1CNCCCNCC
IC50 (DU-145): > 30000 nM
IC50 (A549): > 30000 nM
IC50 (HT-29): > 30000 nM
IC50 [3]: > 30000 nM
IC50 (MCF7): > 30 µM
IC50 (PC-3): > 30000 nM

CCNCCCNC/C=C\CNCCCNCC
IC50 (DU-145): 250 nM
IC50 (A549): 250 nM
IC50 (HT-29): 250 nM
IC50 [3]: 250 nM
IC50 (MCF7): 9.25 µM
IC50 (PC-3): 250 nM

CC(C)c1ccc(CNCCCNCCCNCCCNCc2ccc(C(C)C)cc2)cc1
IC50 (NCI-H157): 4.1 µM

CC(C)(C)c1ccc(CNCCCNCCCNCCCNCc2ccc(C(C)(C)C)cc2)cc1
IC50 (NCI-H157): 4.2 µM

CCNCCCNCCCCNCCCNCC [BIS(ETHYL)SPERMINE]
IC50 (L1210): 500 nM

CC1(C)C2CCC(CNCCCNCCCNCCCNCC3CCC4CCC3C4(C)C)C1CC2 (stereo unspecified)
IC50 (NCI-H157): 2.8 µM

Nc1ccccc1NC(=O)c1ccc(CNC(=O)CCCCC(=O)NCCCNCCCCNCCC(c2ccccc2)c2ccccc2)cc1
IC50 (MCF7): > 30 µM
IC50 (MCF-10A): > 30 µM
inhibition [1]: 48.4%

CCNCCCNCCCCNCCCNCC(CC)CC
IC50 (NCI-H157): 3.1 µM

CCNCCCCNCCCCNCCCCNCC [DIETHYLHOMOSPERMINE]
IC50 (Malme-3M): 1000 nM

CCCCCCCCCCCCCC1CC(=O)NCCCNCCCCNCCCN1 (stereo unspecified) [BUDMUNCHIAMINE L4]
IC50 (DuPro): 600 nM
IC50 (PC-3): 600 nM

CC(C)NCCCNCCCCNCCCNC(C)C
IC50 (Malme-3M): 3000 nM

CCNCCCNCCCNCCCNC(C)CC (stereo unspecified)
IC50 (A549): 800 nM
IC50 (NCI-H157): 1.3 µM
IC50 [2]: 800 nM
IC50 (NCI-H69): 800 nM

O=C(CCCCCCC(=O)NCCCNCCCCNCCC(c1ccccc1)c1ccccc1)NO
inhibition [4]: 75%
IC50 (cells): 10 µM

c1ccc(-c2ccccc2CNCCCCNCCCNCc2ccccc2-c2ccccc2)cc1
IC50 (NCI-H157): 4 µM

O=C(CCCCCCC(=O)NCc1ccc(C(=O)O)cc1)NCCCNCCCCNCC(c1ccccc1)c1ccccc1
IC50 (MCF7): > 30 µM
IC50 (MCF-10A): > 30 µM
inhibition [1]: 72.6%

C(CCCNCCCNCC1CCCCCC1)CCCNCCCNCC1CCCCCC1
IC50 (NCI-H157): 2.9 µM

CC(C)(C)c1ccc(CNCCCCNCCCNC(=O)CCCCCC(=O)NO)cc1
fold change (FC) [5]: 253

CCNCCCNCC#CCNCCCNCC
IC50 (DU-145): > 30000 nM
IC50 (A549): > 30000 nM
IC50 (HT-29): > 30000 nM
IC50 [3]: > 30000 nM
IC50 (MCF7): > 30 µM
IC50 (PC-3): > 30000 nM

CCNCCCNCCCNCCCNCC1CC1
IC50 (MCF7): 0.2 µM
IC50 (NCI-H157): 0.2 µM
IC50 (T47D): 200 nM
IC50 (ZR-75-1): 200 nM
IC50 (MDA-MB-468): 200 nM
IC50 [6]: 200 nM

CCNC/C=C\CNCCCCNCCCCNCCCCNCC
IC50 (DU-145): 250 nM
IC50 (LNCaP): 80 nM
IC50 (DuPro): 80 nM
IC50 (PC-3): 80 nM

Nc1ccccc1NC(=O)c1ccc(CNC(=O)CCCCC(=O)NCCCNCCCCNCc2ccccc2-c2ccccc2)cc1
IC50 (MCF7): > 30 µM
IC50 (MCF-10A): > 30 µM
inhibition [1]: 60.1%

FC(F)(F)Sc1ccc(CNCCCNCCCNCCCNCc2ccc(SC(F)(F)F)cc2)cc1
IC50 (NCI-H157): 3.6 µM
